Reference: ChEMBL document CHEMBL1127254, “Induction of endonucleolytic DNA fragmentation and apoptosis by the duocarmycins” (Bioorg Med Chem Lett, 1994)

What was measured:
[1] = system: MOLT-4; experiment: Induced cell death in Molt-4 cell line at a dose of E-9 M after 3 hour of incubation; assay type: functional, Homo sapiens
[2] = system: MOLT-4; experiment: Induced cell death in Molt-4 cell line at a dose of E-8 M after 3 hour of incubation; assay type: functional, Homo sapiens
[3] = system: MOLT-4; experiment: Induced cell death in Molt-4 cell line at a dose of E-8 M after 1 hour of incubation; assay type: functional, Homo sapiens
[4] = system: MOLT-4; experiment: Induced cell death in Molt-4 cell line at a dose of E-8 M after 28 hour of incubation; assay type: functional, Homo sapiens
[5] = system: MOLT-4; experiment: Induced cell death in Molt-4 cell line at a dose of E-9 M after 1 hour of incubation; assay type: functional, Homo sapiens
[6] = system: MOLT-4; experiment: Induced cell death in Molt-4 cell line at a dose of E-10 M after 28 hour of incubation; assay type: functional, Homo sapiens
[7] = system: MOLT-4; experiment: Induced cell death in Molt-4 cell line at a dose of E-8 M after 20 hour of incubation; assay type: functional, Homo sapiens
[8] = system: MOLT-4; experiment: Induced cell death in Molt-4 cell line at a dose of E-10 M after 3 hour of incubation; assay type: functional, Homo sapiens
[9] = system: MOLT-4; experiment: Induced cell death in Molt-4 cell line at a dose of E-9 M after 20 hour of incubation; assay type: functional, Homo sapiens
[10] = system: MOLT-4; experiment: Induced cell death in Molt-4 cell line at a dose of E-10 M after 1 hour of incubation; assay type: functional, Homo sapiens
[11] = system: MOLT-4; experiment: Induced cell death in Molt-4 cell line at a dose of E-9 M after 28 hour of incubation; assay type: functional, Homo sapiens
[12] = system: MOLT-4; experiment: Induced cell death in Molt-4 cell line at a dose of E-10 M after 20 hour of incubation; assay type: functional, Homo sapiens
[13] = system: MOLT-4; experiment: Induced cell death in Molt-4 cell line at a dose of E-8 M after 8 hour of incubation; assay type: functional, Homo sapiens
[14] = system: MOLT-4; experiment: Induced cell death in Molt-4 cell line at a dose of E-8 M after 5 hour of incubation; assay type: functional, Homo sapiens
[15] = system: MOLT-4; experiment: Induced cell death in Molt-4 cell line at a dose of E-9 M after 8 hour of incubation; assay type: functional, Homo sapiens
[16] = system: MOLT-4; experiment: Induced cell death in Molt-4 cell line at a dose of E-10 M after 5 hour of incubation; assay type: functional, Homo sapiens
[17] = system: MOLT-4; experiment: Induced cell death in Molt-4 cell line at a dose of E-10 M after 8 hour of incubation; assay type: functional, Homo sapiens
[18] = Mean concentration required for the compound to inhibit tumor activity in 20 different cell lines was determined; assay type: functional
[19] = system: MOLT-4; experiment: Induced cell death in Molt-4 cell line at a dose of E-9 M after 5 hour of incubation; assay type: functional, Homo sapiens

Compound	Viability [1] [%]	Viability [2] [%]	Viability [3] [%]	Viability [4] [%]	Viability [5] [%]	Viability [6] [%]	Viability [7] [%]	Viability [8] [%]	Viability [9] [%]	Viability [10] [%]	Viability [11] [%]	Viability [12] [%]	Viability [13] [%]	Viability [14] [%]	Viability [15] [%]	Viability [16] [%]	Viability [17] [%]	IC50 [18] [nM]	Viability [19] [%]
COC(=O)c1cc2c([nH]1)C(=O)C=C1N(C(=O)c3cc4cc(OC)c(OC)c(OC)c4[nH]3)C[C@H]3C[C@]123 [DUOCARMYCIN]	95	92	95	10	95	58	10	95	15	95	12	58	42	80	52	90	65	0.1	85
COC(=O)[C@]1(C)Nc2c(O)cc3c(c2C1=O)[C@H](CCl)CN3C(=O)c1cc2cc(OC)c(OC)c(OC)c2[nH]1																		20	
